Test results reported in patent publication US12540120B2, “Herbicidal compounds” (SYNGENTA CROP PROTECTION AG, priority 2019, dated 2026).

Columns and labels:
Format in all cases: in vivo
[1] = tested on: Amaranthus retoflexus (AMARE); assay: B5 Pre-Emergence Efficacy—Test 2; conditions: 250 g/ha, evaluated after 13 days
Experimental: (§1) B5 Pre-Emergence Efficacy—Test 2 Seeds of a variety of test species were sown in standard soil in pots: Solanum nigrum (SOLNI), Amaranthus retoflexus (AMARE), Setaria faberi (SETFA), Echinochloa crus-galli (ECHCG), Ipomoea hederacea (IPOHE), Lolium perenne (LOLPE). After cultivation for one day (pre-emergence) under controlled conditions in a glasshouse (at 24/16° C., day/night; 14 hours light; 65% humidity), the plants were sprayed with an aqueous spray solution derived from the formulation of the technical active ingredient in acetone/water (50:50) solution containing 0.5% Tween 20 (polyoxyethelyene sorbitan monolaurate, CAS RN 9005-64-5). Compounds are applied at 250 g/ha. The test plants were then grown in a glasshouse under controlled conditions (at 24/16° C., day/night; 14 hours light; 65% humidity) and watered twice daily. After 13 days, the test is evaluated for the percentage damage caused to the plant. The biological activities are assessed on a five point scale (5=80-100%; 4=60-79%; 3=40-59%; 2=20-39%; 1=0-19%). A blank value in the table is indicative that the compound was not tested on that species.

Solanum nigrum (SOLNI) [2] = assay: B5 Pre-Emergence Efficacy—Test 2; conditions: 250 g/ha, evaluated after 13 days
Experimental: as §1

[3] = tested on: Ipomoea hederacea (IPOHE); assay: B5 Pre-Emergence Efficacy—Test 2; set-up: key: 5-point scale: 5=80-100%, 4=60-79%, 3=40-59%, 2=20-39%, 1=0-19% damage; conditions: 250 g/ha, evaluated after 13 days
Experimental: as §1

Setaria faberi (SETFA) [4] = assay: B5 Pre-Emergence Efficacy—Test 2; set-up: key: 5-point scale: 5=80-100%, 4=60-79%, 3=40-59%, 2=20-39%, 1=0-19% damage; conditions: 250 g/ha, evaluated after 13 days
Experimental: as §1

[5] = tested on: Echinochloa crus-galli (ECHCG); assay: B5 Pre-Emergence Efficacy—Test 2; set-up: key: 5-point scale: 5=80-100%, 4=60-79%, 3=40-59%, 2=20-39%, 1=0-19% damage; conditions: 250 g/ha, evaluated after 13 days
Experimental: as §1

Lolium perenne (LOLPE) [6] = assay: B5 Pre-Emergence Efficacy—Test 2; set-up: key: 5-point scale: 5=80-100%, 4=60-79%, 3=40-59%, 2=20-39%, 1=0-19% damage; conditions: 250 g/ha, evaluated after 13 days
Experimental: as §1

[7] = tested on: Ipomoea hederacea (IPOHE); assay: B2 Post-Emergence Efficacy—Test 2; conditions: post-emergence application, 250 g/ha, evaluated after 13 days (Test 2)
Experimental: (§2) B2 Post-Emergence Efficacy—Test 2 Seeds of a variety of test species are sown in standard soil in pots:—Solanum nigrum (SOLNI), Amaranthus retoflexus (AMARE), Setaria faberi (SETFA), Echinochloa crus-galli (ECHCG), Ipomoea hederacea (IPOHE), Lolium perenne (LOLPE). After 8 days cultivation (post-emergence) under controlled conditions in a glasshouse (at 24/16° C., day/night; 14 hours light; 65% humidity), the plants are sprayed with an aqueous spray solution derived from the formulation of the technical active ingredient in acetone/water (50:50) solution containing 0.5% Tween 20 (polyoxyethylene sorbitan monolaurate, CAS RN 9005-64-5). Compounds are applied at 250 g/ha. The test plants are then grown in a glasshouse under controlled conditions in a glasshouse (at 24/16° C., day/night; 14 hours light; 65% humidity) and watered twice daily. After 13 days, the test is evaluated for the percentage damage caused to the plant. The biological activities are assessed on a five point scale (5=80-100%; 4=60-79%; 3=40-59%; 2=20-39%; 1=0-19%). A blank value in the table is indicative that the compound was not tested on that species.

Setaria faberi (SETFA) [8] = assay: B2 Post-Emergence Efficacy—Test 2; conditions: post-emergence application, 250 g/ha, evaluated after 13 days (Test 2)
Experimental: as §2

[9] = tested on: Echinochloa crus-galli (ECHCG); assay: B2 Post-Emergence Efficacy—Test 2; conditions: post-emergence application, 250 g/ha, evaluated after 13 days (Test 2)
Experimental: as §2

[10] = tested on: Amaranthus retoflexus (AMARE); assay: B2 Post-Emergence Efficacy—Test 2; conditions: post-emergence application, 250 g/ha, evaluated after 13 days (Test 2)
Experimental: as §2

Solanum nigrum (SOLNI) [11] = assay: B2 Post-Emergence Efficacy—Test 2; conditions: post-emergence application, 250 g/ha, evaluated after 13 days (Test 2)
Experimental: as §2

Lolium perenne (LOLPE) [12] = assay: B2 Post-Emergence Efficacy—Test 2; conditions: post-emergence application, 250 g/ha, evaluated after 13 days (Test 2)
Experimental: as §2

Row | Compound | Control of weed species after pre-emergence application, AMARE (percentage damage, five point scale) [1] | Control of weed species after pre-emergence application, SOLNI (percentage damage, five point scale) (Solanum nigrum (SOLNI) [2]) | Control of weed species after pre-emergence application, IPOHE (percentage damage, five point scale) [3] | Control of weed species after pre-emergence application, SETFA (percentage damage, five point scale) (Setaria faberi (SETFA) [4]) | Control of weed species after pre-emergence application, ECHCG (percentage damage, five point scale) [5] | Control of weed species after pre-emergence application, LOLPE (percentage damage, five point scale) (Lolium perenne (LOLPE) [6]) | percentage damage caused to the plant, five point scale, IPOHE [7] | percentage damage caused to the plant, five point scale, SETFA (Setaria faberi (SETFA) [8]) | percentage damage caused to the plant, five point scale, ECHCG [9] | percentage damage caused to the plant, five point scale, AMARE [10] | percentage damage caused to the plant, five point scale, SOLNI (Solanum nigrum (SOLNI) [11]) | percentage damage caused to the plant, five point scale, LOLPE (Lolium perenne (LOLPE) [12])
1 | Cc1nn(C)c(=O)c(-c2c(F)ccc(Cl)c2CCc2ccc(C3CC3)cc2)c1O [Compound A-1.038] | 5 (5=80-100%) | 5 (5=80-100%) | 2 (2=20-39%) | 0 | 5 (5=80-100%) | 5 (5=80-100%) | 5 (5=80-100%) | 5 (5=80-100%) | 5 (5=80-100%) | 5 (5=80-100%) | 5 (5=80-100%) | 5 (5=80-100%)
2 | CSc1ccc(CCc2c(Cl)ccc(F)c2-c2c(O)c(C)nn(C)c2=O)cc1 [Compound A-1.039, 4-[3-chloro-6-fluoro-2-[2-(4-methylsulfanylphenyl)ethyl]-phenyl]-5-hydroxy-2,6-dimethyl-pyridazin-3-one] | 5 (5=80-100%) | 5 (5=80-100%) | 3 (3=40-59%) | 5 (5=80-100%) | 5 (5=80-100%) | 4 (4=60-79%) | 5 (5=80-100%) | 5 (5=80-100%) | 5 (5=80-100%) | 5 (5=80-100%) | 5 (5=80-100%) | 5 (5=80-100%)
3 | Cc1nn(C)c(=O)c(-c2c(F)ccc(Cl)c2CCc2ccc(C(=O)O)cc2)c1O [Compound A-1.040] | 0 | 0 | 0 | 0 | 0 | 0 | 0 | 0 | 0 | 3 (3=40-59%) | 3 (3=40-59%) | 0
4 | COC(=O)c1ccc(CCc2c(Cl)ccc(F)c2-c2c(O)c(C)nn(C)c2=O)cc1 [Compound A-1.041] | 4 (4=60-79%) | 0 | 0 | 0 | 0 | 0 | 2 (2=20-39%) | 4 (4=60-79%) | 1 (1=0-19%) | 5 (5=80-100%) | 5 (5=80-100%) | 1 (1=0-19%)
5 | Cc1nn(C)c(=O)c(-c2c(F)ccc(Cl)c2CCc2ccc(NC(=O)OC(C)(C)C)c(F)c2)c1O [Compound A-1.042] | 5 (5=80-100%) | 5 (5=80-100%) | 2 (2=20-39%) | 5 (5=80-100%) | 2 (2=20-39%) | 1 (1=0-19%) | 3 (3=40-59%) | 5 (5=80-100%) | 5 (5=80-100%) | 5 (5=80-100%) | 5 (5=80-100%) | 5 (5=80-100%)
6 | CC(=O)Nc1cc(CCc2c(Cl)ccc(F)c2-c2c(O)c(C)nn(C)c2=O)ccn1 [Compound A-1.044] | 5 (5=80-100%) | 5 (5=80-100%) | 1 (1=0-19%) | 5 (5=80-100%) | 3 (3=40-59%) | 2 (2=20-39%) | 0 | 5 (5=80-100%) | 3 (3=40-59%) | 5 (5=80-100%) | 5 (5=80-100%) | 4 (4=60-79%)
